Where a SMILES comes first, the peptide text is derived from it. [ ]: non-standard residue; d: D form.
How the values were obtained:
[1] = test system: endogenous JNK activity in HepG2 cells; experiment: Inhibition of endogenous IL-1β-induced JNK activity in HepG2 cells, AlphaScreen all-in one well approach; assay type: cell-based; settings: FIG. 6 panel d
Procedure: HepG2 cells were seeded at 3,000 cells/well the day prior the experiment. Then, increasing concentrations of either interleukin-1β [IL-1β(▪)] or tumor necrosis factor α[TNFα(●)] (a) were added to activate JNK for 30 minutes. Cells were lysed in 20 mM Hepes, 0.5% Tween pH 7.4 and processed for AlphaScreen JNK. (b) Z′ for the JNK activity induced by 10 ng/ml IL-1β and measured in 384 wells/plate (n=96). (c) Inhibition of endogenous IL-1β-induced JNK activity with chemical JNK inhibitors [staurosporin (∘) and SP600125 (●)]. (d) Effect of peptidic inhibitors L-TAT-IB1(s) according to SEQ ID NO: 9 [here abbreviated as L-JNKi (▪)) and D-TAT-IB1(s) according to SEQ ID NO: 11 (here abbreviated as D-JNKi (□)) and JBDs (●) (corresponds to L-JNKI without the TAT sequence)] on […] dependent JNK activity. All panels are representative of three independent experiments (n=3).
Methods: Alphascreen Kinase Assay
Principle: AlphaScreen is a non-radioactive bead-based technology used to study biomolecular interactions in a microplate format. The acronym ALPHA stands for Amplified Luminescence Proximity Homogenous Assay. […]
Kinase reagents (B-GST-cJun, anti P-cJun antibody and active JNKS) were first diluted in kinase buffer (20 mM Tris-HCl pH 7.6, 10 mM MgCl2, 1 mM DTT, 100 μM Na3VO4, 0.01% Tween-20) and added to wells (15 μl). […] AlphaScreen signal was analyzed directly on the Fusion or En Vision apparatus.

[2] = test system: recombinant JNK1, JNK2, or JNK3 kinases; experiment: Solid phase kinase assay, phosphorylation of c-Jun, ATF2 and Elk1 by recombinant JNKs; assay type: biochemical; settings: GST-Jun (aa 1-73), 0-250 μM dosage study
Procedure: The effects of the peptides on JNKs-mediated phosphorylation of their target transcription factors were investigated in vitro. Recombinant and non activated JNK1, JNK2 and JNK3 were produced using a TRANSCRIPTION AND TRANSLATION rabbit reticulocyte lysate kit (Promega) and used in solid phase kinase assays with c-Jun, ATF2 and Elk1, either alone or fused to glutathione-S-transferase (GST), as substrates. Dose response studies were performed wherein inventive L-TAT or L-TAT-IB1(s) peptides (0-25 μM) were mixed with the recombinant JNK1, JNK2, or JNK3 kinases in reaction buffer (20 mM Tris-acetate, 1 mM EGTA, 10 mM p-nitrophenyl-phosphate (pNPP), 5 mM sodium pyrophosphate, 10 mM p-glycerophosphate, 1 mM dithiothreitol) for 20 minutes. The kinase reactions were then initiated by the addition of 10 mM MgCl2 and 5 pCi […] and 1 μg of either GST-Jun (aa 1-89), GST-AFT2 (aa 1-96) or GST-ELK1 (aa 307-428). GST-fusion proteins were purchased from Stratagene (La Jolla, Calif.).
Ten μL of glutathione-agarose beads were also added to the mixture. Reaction products were then separated by SDS-PAGE on a denaturing 10% polyacrylamide gel. Gels were dried and subsequently exposed to X-ray films (Kodak). […] The ability of D-TAT, inventive D-TAT-IB1(s) and inventive L-TAT-IB1(s) peptides (0-250 μM dosage study) to inhibit GST-Jun (aa 1-73) phosphorylation by recombinant JNK1, JNK2, and JNKS by were analyzed as described above. Overall, D-TAT-IB1(s) peptide decreased JNK-mediated phosphorylation of c-Jun, but at levels approximately 10-20 fold less efficiently than L-TAT-IB1(s).

[3] = Focal cerebral ischemia, permanent MCAO model, lesion volume; assay type: in vivo, 12-days-old rats
Description: Focal cerebral ischemia was induced in 12-days-old rats. Pups were anesthetized in an induction chamber with 2% isoflurane and during the operation anaesthesia was maintained using a mask under 2% isoflurane. MCAO was induced by electrocoagulating a main branch of the middle cerebral artery (MCA). Rats were placed on the right side, and an oblique dermal incision was made between the ear and eye. After excision of the temporal muscle, the cranial bone was removed from the frontal suture to a level below the zygomatic arch. […] The cranial skin incision was then closed. Rat pups were then placed in an incubator maintained at 37° C. until they awoke, and were then transferred to their mother.
6 hours later an inventive chimeric D-TAT-IB1(s) peptide according to SEQ ID NO: 11 was injected intraperitoneally. 24 hours after the coagulation, the rats were anesthetized with chloral hydrate and perfused through the ascending aorta with 4% paraformaldehyde in PBS. Brains were then removed and kept for 2 hours in the same fixative solution, and placed in a gradient of 30% sucrose in PBS for about 15 hours at 4° C. Brains were frozen in isopentane (−40° C.) and stored at −20° C. Coronal cryostat sections of 50 µm were collected on glass slides. The sections were stained with cresyl violet. Each tenth section was analyzed and the total volume of the lesion was calculated using the Neuroleucida programme. In the control group A, the mean lesion volume was 21.47 mm^3. […] A significant statistic difference is observed between group A and groups C, E and F (one-tailed t-test, p=0.030, p=0.002, p=0.001 respectively).

SMILES: CC(C)C[C@@H](NC(=O)[C@@H](Cc1ccccc1)NC(=O)[C@H]1CCCN1C(=O)[C@@H](CCC(N)=O)NC(=O)[C@H](NC(=O)[C@H]1CCCN1C(=O)[C@@H](CCCNC(=N)N)NC(=O)[C@@H](CO)NC(=O)[C@@H](CCC(N)=O)NC(=O)[C@H](N)CC(=O)O)C(C)C)C(=O)N[C@H](CC(N)=O)C(=O)N[C@H](CC(C)C)C(=O)N[C@@H](C(=O)N[C@@H](C(=O)N1CCC[C@@H]1C(=O)N[C@H](CCCNC(=N)N)C(=O)N[C@H](CCCCN)C(=O)N1CCC[C@@H]1C(=O)N[C@H](CCCNC(=N)N)C(=O)N1CCC[C@@H]1C(=O)N1CCC[C@@H]1C(=O)N[C@H](CCCNC(=N)N)C(=O)N[C@H](CCCNC(=N)N)C(=O)N[C@H](CCCNC(=N)N)C(=O)N[C@H](CCC(N)=O)C(=O)N[C@H](CCCNC(=N)N)C(=O)N[C@H](CCCNC(=N)N)C(=O)N[C@H](CCCCN)C(=O)N[C@H](CCCCN)C(=O)N[C@H](CCCNC(=N)N)C(=O)NCC(=O)O)[C@H](C)O)[C@H](C)O [D-TAT-IB1(s)] (H-[dD][dQ][dS][dR][dP][dV][dQ][dP][dF][dL][dN][dL][dT][dT][dP][dR][dK][dP][dR][dP][dP][dR][dR][dR][dQ][dR][dR][dK][dK][dR]G-OH)
- inhibition of endogenous JNK activity [1]: effectively inhibits JNK activity, even better than L-TAT-IB1(s)
- efficiency in decreasing JNK-mediated phosphorylation of c-Jun, fold less efficient than L-TAT-IB1(s) [2]: 10-20 fold
- mean lesion volume of all treated groups versus control group ([3]; control group mean 21.47 mm^3): lower mean than the control group
- cerebral protection (lesion volume) compared to saline group ([3]; doses 1 mg/kg, 0.003 mg/kg and 0.0003): not large enough to reach a significant difference
- dose of best protection ([3]; i.p. 6 hours after MCAO): 0.03 mg/kg
- cerebral protection (lesion volume) ([3]; i.p. 6 hours after MCAO, doses 11 mg/kg, 3 mg/kg, 0.3 mg/kg and 0.03 mg/kg, 24 hours after coagulation): contributes to a cerebral protection
